This is an account of results in patent US20190086390A1, “INDIRECT ASSESSMENT OF INSULIN RELEASE IN A CELL” (Board of Supervisors of Louisiana State University and …, priority 2016, published 2019).

Where “and” joins values, the source holds several entries; their conditions need not be identical. Identical values can stand only once. Entries after “also recorded” stand apart in the source; their conditions may differ. Bounds are passed on as bounds.

Common to all, as to format: cell-based, rat
Experiment [1] has as its system 832/13 cells. As to the kind of experiment: Glucose-stimulated insulin secretion (GSIS) in 832/13 cells, insulin ELISA. The settings on record: for decrease in GSIS: 1 ng/ml IL-1β. As for the experimental part:
(§1) 832/13 cells were grown in 12-well plates and treated as indicated. Glucose-stimulated insulin secretion (GSIS) assays were performed as described previously (29). Insulin secretion by cell lines into the media was measured using either the High Range Rat Insulin ELISA kit (Mercodia, Uppsala, Sweden) or by rat islets using the insulin radioimmunoassay (Siemens, Malvern, Pa.) according to the company directions. In addition, cells were lysed using M-PER lysis reagent (Thermo Fisher Scientific) to quantify total intracellular protein content via BCA assay (Thermo Fisher Scientific). Insulin secretion data were normalized to total protein to account for any differences in cell number between treatment groups. Incorporation of tritiated thymidine into DNA as a cellular index of proliferation was carried out as described (45).

In a further experiment the test system is CCL2. As to the kind of experiment: CCL2 secretion into media of 832/13 cells, ELISA. As for the experimental part:
832/13 cells were grown in 12-well plates and treated as indicated. RPMI was supplemented with 0.3% BSA, and media were collected at the indicated time points. In addition, the cells were lysed using M-PER lysis reagent (Thermo Fisher Scientific) to quantify total intracellular protein content. CCL2 and CCL20 secretion into the media was measured by CCL2 Quantikine ELISA kit (R & D Systems, Minneapolis, Minn.) and CCL20 DuoSet ELISA kit (R & D Systems) according to the manufacturer's protocol. ELISA data were normalized to total protein to account for any differences in cell number between treatment groups.
(In general: In an ELISA, binding on a coated surface is turned into a signal by an enzyme label.)

Another experiment relates to iNOS. As to the kind of experiment: iNOS mRNA (RT-PCR) and protein (immunoblot) abundance in 832/13 cells. Conditions: 832/13 cells exposed to IL-1β. The text has this:
RNA isolation from cell lines and rat islets, cDNA synthesis, and analysis of real-time RT-PCR data has been described in detail previously (12). For all transcripts studied, the relative mRNA abundance was normalized to that of the housekeeping gene ribosomal S9. Primers used to detect transcript levels of ribosomal S9, iNOS, IL-1, and Nkx6.1 were designed using Primer3Plus software and are available upon request.
Cell lysis and extraction of cytoplasmic and nuclear protein fractions was performed using the NE-PER kit (Thermo Fisher Scientific) according to the manufacturer's directions. The protein concentration of the lysate was determined using the bicinchoninic acid assay (Thermo Fisher Scientific), using BSA as the standard. SDS-PAGE, transfer to polyvi-nylidene difluoride membranes, membrane blocking before antibody incubation, and downstream subsequent detection using a ChemiDoc imaging system (Bio-Rad) have been described previously (16). Antibodies detecting β-actin or tubulin were used as loading controls. Antibodies used were from the following sources: iNOS (Santa Cruz Biotechnology), (3-actin (Cell Signaling Technology), Ikα: (Santa Cruz Biotechnology), tubulin (Cell Signaling Technology), and Pdx-1 (Cell Signaling Technology). The antibody recognizing Nkx6.1 has been described (34). Immunoblot images were quantified using Image Lab software (Bio-Rad).

Experiment [2] relates to 832/13 cells. Put plainly: Nitrite accumulation in culture media, Griess assay. The settings on record: IL-1β. As for the experimental part: Nitrite in the cell culture media was measured as an index of NO production using the Griess assay kit (Promega, Madison, Wis.), whereas cellular reduction of the 3-(4,5-dimethylthiazol-2-yl)-5-(3-carboxymethoxyphenyl)-2-(4-sulfophe-nyl)-2H-tetrazohum, inner salt (MTS) dye was determined using the MTS 1 solution kit (Promega) according to the manufacturer's protocol.

For experiment [3], the system named is 832/13 cells. As to the kind of experiment: Tritiated thymidine incorporation into DNA (proliferation). Conditions: IL-1β 18 h. As for the experimental part:
as §1
(Incorporation of labelled thymidine or its analogues reports DNA synthesis.)

In experiment [4] the test system is 832/13 cells. As to the kind of experiment: Oxygen consumption rate (Seahorse XF24). Conditions: 1 ng/ml IL-1β, 18 h. The procedure: Oxygen consumption rates (OCR) were measured using the XF^24 Extracellular Flux Analyzer (Seahorse Bioscience, Chicopee, Mass.). 832/13 cells were grown on cell culture plates for 2 days prior to OCR assays being run. Cells were treated with vehicle, 1 ng/ml IL-β, 1 mM I-NMMA, or both IL-1β (1 ng/ml) plus I-NMMA (1 mM) for 18 h prior to OCR being measured. The oxygen consumption rate was measured over a 2-h period. Data represent the calculated average area under the curve from six wells per treatment group over multiple independent experiments.

Experiment [5] concerns voltage-gated Ca^2+ channels. Put plainly: Whole cell voltage clamp recordings. Conditions: n=25; for cell size (whole cell capacitance) vs control: IL-1β pretreatment. The source says: Cell culture dishes were mounted on the stage of an Olympus K70 inverted microscope. A reference Ag/AgCl pellet served to ground the bath. Patch electrodes were pulled from thick-walled borosilicate glass with a filament (outer diameter 1.5 mm; inner diameter: 0.86 mm; Sutter Instruments, Novato, Calif.) using a Haming-Brown Micropipette Puller (Sutter Instruments). Electrode resistance values ranged from 4 to 7 Mfl. Ruptured patch, whole cell voltage clamp recordings were made using an Axopatch ID-patch clamp amplifier (Molecular Devices, Sunnyvale, Calif.). Data were recorded using pClamp 10.0 software (Molecular Devices). Unless otherwise indicated, all reagents were purchased from Sigma-Aldrich (St. Louis, Mo.). External solutions consisted of the following (in mM): 116.7 NaCl, 20.0 TEAC1, 3.0 CaCl2, 0.4 MgCl2, 4.0 glucose, and 10.0 HEPES. Voltage clamp experiments were performed in the ruptured patch configuration using the following internal solution (in mM): 100.00 CsAc, 10.0 CsCl, 2.0 MgCl2, 0.1 CaCl2, and 10.0 HEPES. Also included was an ATP regeneration system to preserve Ca^2+ currents [3.0 ATP (dipotassium), 1.0 ATP (disodium), 20.0 phosphocreatine, 2.0 GTP, and 50 U/ml creatine phos-phokinase]. Cesium was used as a substitute for K^+ to minimize currents through voltage-gated K^+ channels. Tetrodotoxin (300 nM; Alomone Laboratories, Jerusalem, Israel) was included in the external solution to block voltage-gated Na^+ currents. The liquid junction potential error for these solutions was estimated to be −13 mV (pClamp). Solutions were adjusted to pH 7.4 with NaOH for external solutions and with CsOH for internal solutions. A pressurized gravity flow perfusion system (1.5-2 mi/min) was used to deliver the external solutions (AutoMate Scientific, Berkeley, Calif.).

“IL-1β: proinflammatory cytokine purchased from Thermo Fisher Scientific, used at 1 ng/ml”: the “decrease in GSIS” value with 832/13 cells [1] (6 h) was 40% and 36%; in the experiment with 832/13 cells [1] (12 h), 59%. The “time by which insulin secretion began to decrease” value with 832/13 cells [1] (IL-1β) is reported as no more than 6 h. In the experiment on 832/13 cells [1] (IL-1β, associated with 13-fold increase in nitrite, time not given), the “diminution in GSIS” value was found to be 54%. Besides, the “expression and secretion of CCL2 in response to IL-1β” value in the experiment with CCL2 (832/13 cells, 1 ng/ml IL-1β) is reported as “markedly elevated; also recorded: strongly induced”. Further, the “time to chemokine secretion after cellular exposure” value with CCL2 (IL-1β) lay within 3 to 6 h. Also, the “IL-1β-induced secretion of CCL2 over a range of glucose concentrations” value in the experiment with CCL2 (glucose 2, 4, 8 or 16 mM, IL-1β 6 h) is “not different”. Besides, the “iNOS expression (transcript and protein)” value in the experiment on iNOS is given as “rapidly induced; also recorded: accumulates; also recorded: robust iNOS abundance”. For the same substance, the “increase in nitrite accrual” value in the experiment with 832/13 cells [2] (6 h) worked out at 5.5 fold. In the experiment on 832/13 cells [2] (time not given, associated with 54% diminution in GSIS), this substance gave an increase in nitrite of 13 fold. The “ability to incorporate thymidine into DNA” value with 832/13 cells [3] is listed as “reduced markedly”. Besides, the “decrease in cellular oxygen consumption rate” value in the experiment on 832/13 cells [4] was 25%. Also, the “cell size (whole cell capacitance) vs control” value was “no effect on cell size” in experiment [5] and “not significantly different” in experiment [5] (listed as IL-I1β). Further, the “voltage-gated Ca^2+ current density vs control” value in experiment [5] (IL-1β-treated 832/13 cells, step to −3 mV) was “not significantly different; also recorded: No significant difference”.
